In publication PMC7915026, “Sulfaguanidine Hybrid with Some New Pyridine-2-One Derivatives: Design, Synthesis, and Antimicrobial Activity against Multidrug-Resistant Bacteria as Dual DNA Gyrase and DHFR Inhibitors” (Antibiotics, 2021):
≈ marks a conversion by molar mass, not a printed value. Where two headings read alike, the source gives them in different places.

Legend:
E. faecalis ATCC 29212 [1] = test: MIC and MBC determination; assay type: cell-based; conditions: Enterococcus faecalis, ATCC29212, E. faecalis
P. aeruginosa ATCC 27853 [2] = test: MIC and MBC determination; assay type: cell-based; conditions: Pseudomonas aeruginosa, ATCC27853, P. aeruginosa
C. albicans (ATCC 10231) [3] = test: MIC and MFC determination; assay type: cell-based
[4] = system: F. oxysporum (RCMB 008002); test: MIC and MFC determination; assay type: cell-based
S. aureus ATCC 33591 [5] = test: MIC and MBC against multidrug-resistant strains; assay type: cell-based; conditions: Staphylococcus aureus, ATCC33591, S. aureus ATCC 33591; for MBC: read-out: MBC; for MIC: read-out: MIC
Text: (§1) Norfloxacin was used as a positive control for the multidrug resistance study.
(§2) The experiment was repeating for three-times.

S. aureus ATCC 43300 [6] = test: MIC and MBC against multidrug-resistant strains; assay type: cell-based; conditions: Staphylococcus aureus, ATCC43300, S. aureus ATCC 43300; for MBC: read-out: MBC; for MIC: read-out: MIC
Text: as §1, §2

E. coli ATCC BAA-196 [7] = test: MIC and MBC against multidrug-resistant strains; assay type: cell-based; conditions: E. coli ATCC BAA-196
Text: as §1, §2

[8] = system: P. aeruginosa ATCC BAA-2111; test: MIC and MBC against multidrug-resistant strains; assay type: cell-based; conditions: P. aeruginosa ATCC BAA-2111
Text: as §1, §2

S. aureus ATCC 29213 [9] = test: MIC and MBC determination; assay type: cell-based; conditions: Staphylococcus aureus, ATCC29213, S. aureus
S. aureus ATCC 33591 [10] = test: Inhibition zone against multidrug-resistant bacteria; assay type: cell-based; conditions: MDRB S. aureus ATCC 33591
Text: as §1
(§3) The antimicrobial activity performed at the bacteriology laboratory, Botany and Microbiology Department, Faculty of Science, Al-Azhar University, Cairo, Egypt. The inhibition zone (IZ) of the tested derivatives expressed as the diameter (mm) according to the agar plate diffusion method.

S. aureus ATCC 43300 [11] = test: as above; assay type: cell-based; conditions: MDRB S. aureus ATCC 43300
Text: as §1, §3

E. coli ATCC BAA-196 [12] = test: as above; assay type: cell-based; conditions: MDRB E. coli ATCC BAA-196
Text: as §1, §3

[13] = system: P. aeruginosa ATCC BAA-2111; test: as above; assay type: cell-based; conditions: MDRB P. aeruginosa ATCC BAA-2111
Text: as §1, §3

S. aureus DNA gyrase = S. aureus DNA gyrase (Staphylococcus aureus, UniProt P0A0K8+P20831); test: In vitro DNA gyrase supercoiling enzymatic assay; assay type: biochemical
spleen and thymus = test: In vivo immunomodulation: immune organ weight and indexes; parameters: Spleen index: unit not given here; conditions: mice
Text: Both the spleen and thymus have important antibacterial and fungal immune organ responses, and any change in weight, and indexes can reflect the level of immune regulation. Additionally, the relative spleen and thymus indexes are important indices for nonspecific immunity and potential immunomodulatory compounds that increase the spleen and thymus weight. This increase is due to immune cells’ stimulation in the spleen and thymus. […]

[14] = system: Salmonella typhi (S. typhi ATCC 6539); test: microbe, parasite or virus in culture; assay type: cell-based; conditions: Salmonella enterica, Salmonella typhi
B. subtilis ATCC 6633 [15] = test: MIC and MBC determination; assay type: cell-based; conditions: Bacillus subtilis, ATCC6633, B. subtilis
E. faecalis ATCC 29212 [16] = test: Inhibition zone, paper disk/agar diffusion; assay type: cell-based; conditions: E. faecalis; Na = no activity
Text: as §3

S. aureus ATCC 29213 [17] = test: Inhibition zone, paper disk/agar diffusion; assay type: cell-based; conditions: S. aureus; Na = no activity
Text: as §3

P. aeruginosa ATCC 27853 [18] = test: Inhibition zone, paper disk/agar diffusion; assay type: cell-based; conditions: P. aeruginosa; Na = no activity
Text: as §3

S. typhi ATCC 6539 = test: Inhibition zone, paper disk/agar diffusion; assay type: cell-based; conditions: S. typhi; Na = no activity
Text: as §3

E. coli ATCC 25922 [19] = test: Inhibition zone, paper disk/agar diffusion; assay type: cell-based; conditions: E. coli; Na = no activity
Text: as §3

[20] = system: F. oxysporum (RCMB 008002); test: Inhibition zone, paper disk/agar diffusion; assay type: cell-based; conditions: Na = no activity
Text: as §3

B. subtilis ATCC 6633 [21] = test: Inhibition zone, paper disk/agar diffusion; assay type: cell-based; conditions: B. subtilis; Na = no activity
Text: as §3

C. albicans (ATCC 10231) [22] = test: Inhibition zone, paper disk/agar diffusion; assay type: cell-based; conditions: Na = no activity
Text: as §3

[23] = system: CD4+ and CD8+ T lymphocytes; test: In vivo T lymphocyte subsets from peripheral blood, flow cytometry; conditions: mice
Text: Activation of immune cells as CD4^+ and CD8^+ T cells is one possible mechanism of a drug’s immune stimulus activity. An increase in these cells is thought to be a good indicator of an active immune response to infections. So, our work extended to study the effect of the most promising derivatives (2d, 8, and 11) on T lymphocyte subsets (CD4^+ and CD8^+) from peripheral blood, and determined the relative level in model mice that analyzed by flow cytometry after the period of treating.
In vitro intracellular killing activities for the most promising six derivatives 2a, 2b, 2d, 3a, 8, and 11 were performed according to reported methods.

E. coli ATCC 25922 [24] = test: MIC and MBC determination; assay type: cell-based; conditions: Escherichia coli, ATCC25922, E. coli
MDRB strains = test: MIC and MBC, ranges over the MDRB panel; assay type: cell-based; conditions: four MDRB strains
Text: as §1, §2

[25] = Escherichia coli, ATCCBAA196, read-out: MBC
[26] = Escherichia coli, ATCCBAA196, read-out: MIC
[27] = Pseudomonas aeruginosa, ATCCBAA2111, read-out: MBC
[28] = Pseudomonas aeruginosa, ATCCBAA2111, read-out: MIC

Sequence of S. aureus DNA gyrase (P20831 whole entry): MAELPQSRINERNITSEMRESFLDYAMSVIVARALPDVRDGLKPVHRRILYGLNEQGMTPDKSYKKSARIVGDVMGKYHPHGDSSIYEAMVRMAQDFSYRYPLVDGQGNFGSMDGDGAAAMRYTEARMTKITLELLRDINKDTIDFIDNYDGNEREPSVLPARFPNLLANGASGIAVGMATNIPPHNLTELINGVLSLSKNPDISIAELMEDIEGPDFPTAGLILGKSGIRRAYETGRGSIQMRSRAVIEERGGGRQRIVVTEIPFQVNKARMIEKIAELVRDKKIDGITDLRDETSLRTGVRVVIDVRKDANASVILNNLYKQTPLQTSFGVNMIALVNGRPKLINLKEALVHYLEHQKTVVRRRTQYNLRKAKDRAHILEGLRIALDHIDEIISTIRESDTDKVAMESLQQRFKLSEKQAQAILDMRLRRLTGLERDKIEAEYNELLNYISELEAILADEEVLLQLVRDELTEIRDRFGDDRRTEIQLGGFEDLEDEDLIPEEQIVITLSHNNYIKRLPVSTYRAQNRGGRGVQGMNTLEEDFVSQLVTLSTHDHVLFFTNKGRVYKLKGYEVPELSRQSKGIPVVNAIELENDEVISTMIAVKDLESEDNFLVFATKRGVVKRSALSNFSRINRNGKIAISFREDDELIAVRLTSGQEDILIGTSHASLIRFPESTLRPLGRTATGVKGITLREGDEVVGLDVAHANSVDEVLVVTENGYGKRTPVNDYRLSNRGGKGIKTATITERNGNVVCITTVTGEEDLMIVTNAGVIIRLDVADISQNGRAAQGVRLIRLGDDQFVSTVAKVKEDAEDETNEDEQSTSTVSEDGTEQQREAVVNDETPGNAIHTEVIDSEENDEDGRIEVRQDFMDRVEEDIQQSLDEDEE
Sequence of S. aureus DNA gyrase (P0A0K8 whole entry): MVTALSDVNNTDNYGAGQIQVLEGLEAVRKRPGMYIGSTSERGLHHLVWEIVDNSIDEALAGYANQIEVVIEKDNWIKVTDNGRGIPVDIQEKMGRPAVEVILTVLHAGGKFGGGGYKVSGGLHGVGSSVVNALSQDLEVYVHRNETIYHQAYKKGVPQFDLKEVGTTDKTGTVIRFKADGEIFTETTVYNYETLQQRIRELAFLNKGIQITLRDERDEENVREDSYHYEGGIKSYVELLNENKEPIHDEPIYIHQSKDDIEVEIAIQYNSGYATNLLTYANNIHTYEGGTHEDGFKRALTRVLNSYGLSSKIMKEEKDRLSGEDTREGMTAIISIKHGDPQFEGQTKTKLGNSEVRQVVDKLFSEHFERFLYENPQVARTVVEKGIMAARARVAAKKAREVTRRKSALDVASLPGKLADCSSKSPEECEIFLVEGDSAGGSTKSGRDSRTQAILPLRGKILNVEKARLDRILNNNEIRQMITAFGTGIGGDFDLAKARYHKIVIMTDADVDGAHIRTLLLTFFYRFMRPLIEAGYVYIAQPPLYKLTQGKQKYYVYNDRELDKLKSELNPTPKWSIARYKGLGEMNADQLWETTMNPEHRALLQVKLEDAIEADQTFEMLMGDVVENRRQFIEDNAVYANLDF

Work on `N=C(N)NS(=O)(=O)c1ccc(NC(=O)c2cc3ccccc3oc2=N)cc1` [Compound 11, N-(4-(N-Carbamimidoylsulfamoyl)phenyl)-2-imino-2H-chromene-3-carboxamide] yielded an MBC (E. faecalis ATCC 29212 [1]; read-out: MBC) of 81.1 ± 0.98 µM (≈ 31.2 µg/mL), an MIC (E. faecalis ATCC 29212 [1]; read-out: MIC) of 40.5 ± 0.74 µM (≈ 15.6 µg/mL) and an MBC (P. aeruginosa ATCC 27853 [2]; read-out: MBC) of 144 ± 1.47 µM (≈ 55.5 µg/mL). The MIC (P. aeruginosa ATCC 27853 [2]; read-out: MIC) was 72 ± 0.96 µM (≈ 27.8 µg/mL), the MFC/MIC (C. albicans (ATCC 10231) [3]) was under 2 and the MFC (C. albicans (ATCC 10231) [3]; Candida albicans, ATCC10231, read-out: MFC) was 45.6 ± 0.47 µM (≈ 17.6 µg/mL). For the same molecule, the MIC (C. albicans (ATCC 10231) [3]; Candida albicans, ATCC10231, read-out: MIC) was 24 ± 0.41 µM (≈ 9.25 µg/mL), the MFC/MIC [4] was under 2 and the MFC ([4]; Fusarium oxysporum, RCMB008002, read-out: MFC) was 145.9 ± 1.25 µM (≈ 56.2 µg/mL). It also gave an MIC ([4]; Fusarium oxysporum, RCMB008002, read-out: MIC) of 81.08 ± 0.54 µM (≈ 31.2 µg/mL), an MBC (S. aureus ATCC 33591 [5]) of 19.2 ± 0.65 µM (≈ 7.41 µg/mL) and an MIC (S. aureus ATCC 33591 [5]) of 10.1 ± 0.29 µM (≈ 3.9 µg/mL). It also gave an MBC (S. aureus ATCC 43300 [6]) of 81.1 ± 0.85 µM (≈ 31.2 µg/mL), an MIC (S. aureus ATCC 43300 [6]) of 40.52 ± 0.36 µM (≈ 15.6 µg/mL) and an MBC (E. coli ATCC BAA-196 [7]; [25]) of 48 ± 0.81 µM (≈ 18.5 µg/mL). The MIC (E. coli ATCC BAA-196 [7]; [26]) was 24 ± 0.49 µM (≈ 9.25 µg/mL), the MBC [8, 27] was 81.1 ± 0.86 µM (≈ 31.2 µg/mL) and the MIC [8, 28] was 40.5 ± 0.74 µM (≈ 15.6 µg/mL). For the same molecule, the MBC (S. aureus ATCC 29213 [9]; read-out: MBC) was 40.5 ± 1.02 µM (≈ 15.6 µg/mL), the MIC (S. aureus ATCC 29213 [9]; read-out: MIC) was 20.3 ± 0.67 µM (≈ 7.81 µg/mL) and the “Mean Diameter of Inhibition Zone” value (S. aureus ATCC 33591 [10]) was 22 ± 0.65 mm. The “Mean Diameter of Inhibition Zone” value (S. aureus ATCC 43300 [11]) was 17 ± 0.3 mm, the “Mean Diameter of Inhibition Zone” value (E. coli ATCC BAA-196 [12]) was 19 ± 0.88 mm and the “Mean Diameter of Inhibition Zone” value [13] was 23 ± 0.25 mm. It also gave an IC50 (S. aureus DNA gyrase) of 39.4 ± 1.15 µM, a Spleen index (spleen and thymus) of 0.008 ± 0.00 and a Spleen weight (spleen and thymus) of 190 ± 0.074 mg. The Thymus index (spleen and thymus) was 0.455 ± 0.07 mg/g, the Thymus weight (spleen and thymus) was 13.67 ± 0.53 mg and the MBC ([14]; read-out: MBC) was 94.7 ± 0.79 µM (≈ 36.5 µg/mL). The MIC ([14]; read-out: MIC) was 48 ± 0.85 µM (≈ 18.5 µg/mL), the MBC (B. subtilis ATCC 6633 [15]; read-out: MBC) was 17.2 ± 0.54 µM (≈ 6.63 µg/mL) and the MIC (B. subtilis ATCC 6633 [15]; read-out: MIC) was 10.1 ± 0.68 µM (≈ 3.9 µg/mL). For the same molecule, the “Mean Diameter of the Inhibition Zone” value (E. faecalis ATCC 29212 [16]) was 29± 0.54 mm, the “Mean Diameter of the Inhibition Zone” value (S. aureus ATCC 29213 [17]) was 24 ± 0.29 mm and the “Mean Diameter of the Inhibition Zone” value (P. aeruginosa ATCC 27853 [18]) was 24 ± 0.13 mm. For the same molecule, the “Mean Diameter of the Inhibition Zone” value (S. typhi ATCC 6539) was 18 ± 0.36 mm, the “Mean Diameter of the Inhibition Zone” value (E. coli ATCC 25922 [19]) was 25 ± 0.43 mm and the “Mean Diameter of the Inhibition Zone” value [20] was 18 ± 0.45 mm. The “Mean Diameter of the Inhibition Zone” value (B. subtilis ATCC 6633 [21]) was 28 ± 0.11 mm, the “Mean Diameter of the Inhibition Zone” value (C. albicans (ATCC 10231) [22]) was 22 ± 0.21 mm and the “T cells CD4+” value [23] was 75.20 ± 0.97%. For the same molecule, the “T cells CD8+” value [23] was 24.05 ± 0.32%, the MBC (E. coli ATCC 25922 [24]; read-out: MBC) was 40.5 ± 0.75 µM (≈ 15.6 µg/mL) and the MIC (E. coli ATCC 25922 [24]; read-out: MIC) was 20.3 ± 0.36 µM (≈ 7.81 µg/mL).
`CCn1cc(C(=O)O)c(=O)c2cc(F)c(N3CCNCC3)cc21` [Norfloxacin, reference compound] showed an MBC (S. aureus ATCC 33591 [5]) of 4.38 ± 0.49 µM (≈ 1.4 µg/mL), an MIC (S. aureus ATCC 33591 [5]) of 2.44 ± 0.45 µM (≈ 0.779 µg/mL) and an MBC (S. aureus ATCC 43300 [6]) of 7.82 ± 0.32 µM (≈ 2.5 µg/mL). The MIC (S. aureus ATCC 43300 [6]) was 3.91 ± 0.21 µM (≈ 1.25 µg/mL), the MBC (E. coli ATCC BAA-196 [7]; listed as Nor.) was 8.32 ± 0.47 µM (≈ 2.66 µg/mL) and the MIC (E. coli ATCC BAA-196 [7]; listed as Nor.) was 4.91 ± 0.69 µM (≈ 1.57 µg/mL). For the same molecule, the MBC (E. coli ATCC BAA-196 [7]; [25]) was 8.32 µM (≈ 2.66 µg/mL), the MIC (E. coli ATCC BAA-196 [7]; [26]) was 4.91 µM (≈ 1.57 µg/mL) and the MBC ([8]; listed as Nor.) was 16.65 ± 0.19 µM (≈ 5.32 µg/mL). It also gave an MIC ([8]; listed as Nor.) of 9.80 ± 0.41 µM (≈ 3.13 µg/mL), an MBC [8, 27] of 16.6 µM (≈ 5.32 µg/mL) and an MIC [8, 28] of 9.8 µM (≈ 3.13 µg/mL). The MBC range (MDRB strains) was 4.38 to 16.65 µM, the MIC range (MDRB strains) was 2.44 to 9.80 µM and the “Mean Diameter of Inhibition Zone” value (S. aureus ATCC 33591 [10]) was 26 ± 0.5 mm. For the same molecule, the “Mean Diameter of Inhibition Zone” value (S. aureus ATCC 43300 [11]) was 25 ± 0.5 mm, the “Mean Diameter of Inhibition Zone” value (E. coli ATCC BAA-196 [12]) was 27 ± 0.98 mm and the “Mean Diameter of Inhibition Zone” value [13] was 24 ± 0.47 mm.
